# Source: the OligoGym collection
# Bases are written 5' to 3'; sugars and linkages follow in the same order, as letters with counts (s phosphorothioate, o phosphodiester; PS: all linkages phosphorothioate). The collection does not say whether C is 5-methylated. l = locked nucleic acid (LNA); d = 2'-deoxy (DNA)
# Molecular target: Tau
# Assay: rat primary cortical neurons, FLIPR, 25 uM ASO
row,Sequence,calcium oscillation score
1,"ACAGCCATTTTCCATAT (sugars l3 d11 l3, PS)",59.3 % of control
2,"ACAGCCTCATAAACCT (sugars l4 d10 l2, PS)",66.8 % of control
3,"ACAGCCTCATAAACCTA (sugars l3 d11 l3, PS)",59.4 % of control
4,"ACAGGAGAGCCATTTCCCAA (sugars l3 d14 l3, PS)",42.9 % of control
5,"ACATCCTGCCATACCA (sugars l3 d11 l2, PS)",45 % of control
6,"ACATCTAAACACCTCAATCC (sugars l2 d15 l3, PS)",73.2 % of control
7,"ACATCTCTCTAGACAT (sugars l4 d9 l3, PS)",59.5 % of control
8,"ACATCTCTCTAGACATC (sugars l4 d10 l3, PS)",68.4 % of control
9,"ACATGCTAATCAATAC (sugars l4 d8 l4, PS)",57.8 % of control
10,"ACATTCTATACTTCAG (sugars l4 d8 l4, PS)",71.4 % of control
11,"ACCAACTTTCATCTACTTTT (sugars l3 d15 l2, PS)",90.5 % of control
12,"ACCAATTAACCGAACT (sugars l3 d10 l3, PS)",159 % of control
13,"ACCAATTAACCGAACTGCGA (sugars l3 d14 l3, PS)",22.6 % of control
14,"ACCAATTATCTTTAAATTCT (sugars l4 d13 l3, PS)",77 % of control
15,"ACCACACACTCTGATAC (sugars l4 d11 l2, PS)",69 % of control
16,"ACCACATTATCATCCATT (sugars l2 d12 l4, PS)",55.7 % of control
17,"ACCACATTATCATCCATTC (sugars l2 d14 l3, PS)",51.9 % of control
18,"ACCACATTATCATCCATTCT (sugars l3 d14 l3, PS)",32.2 % of control
19,"ACCACCTCATTAAGATC (sugars l4 d11 l2, PS)",58.3 % of control
20,"ACCACTGGCGACTTGTACAC (sugars l3 d14 l3, PS)",5.18 % of control
21,"ACCAGCTAGTGGTGCCACCT (sugars l3 d14 l3, PS)",20.2 % of control
22,"ACCAGTTACCATCATAC (sugars l4 d11 l2, PS)",93.2 % of control
23,"ACCATCATACTCCAAG (sugars l4 d9 l3, PS)",76 % of control
24,"ACCATCATACTCCAAGT (sugars l3 d12 l2, PS)",77.7 % of control
25,"ACCATCCAAGTCAATGCCTG (sugars l3 d14 l3, PS)",4.03 % of control
26,"ACCATGATCTTAGGCT (sugars l3 d10 l3, PS)",87.8 % of control
27,"ACCATTAACTGCCTATT (sugars l4 d11 l2, PS)",50.5 % of control
28,"ACCCAATCTTCGACTG (sugars l3 d10 l3, PS)",43.4 % of control

row,Sequence,calcium oscillation score
1,"ACCCACTTTCCTAATTCCCA (sugars l1 d17 l2, PS)",76.6 % of control
2,"ACCCATCAATTTGGAAAGAT (sugars l3 d14 l3, PS)",72.6 % of control
3,"ACCCATCCCACAAAGAACAG (sugars l3 d14 l3, PS)",34.2 % of control
4,"ACCCATCTTAATTCATTTAA (sugars l3 d14 l3, PS)",96.1 % of control
5,"ACCCATTATCTGCTCC (sugars l3 d11 l2, PS)",50.9 % of control
6,"ACCCCACATTTGCAAAC (sugars l3 d12 l2, PS)",63.5 % of control
7,"ACCCCACATTTGCAAACC (sugars l2 d13 l3, PS)",46.2 % of control
8,"ACCCCATTTTTGACATA (sugars l3 d12 l2, PS)",73.1 % of control
9,"ACCCCGAATTTACACC (sugars l3 d11 l2, PS)",97.5 % of control
10,"ACCCCGAATTTACACCC (sugars l1 d14 l2, PS)",86.2 % of control
11,"ACCCTTACACATAGCTTC (sugars l2 d13 l3, PS)",53.9 % of control
12,"ACCCTTAGACATAACA (sugars l4 d10 l2, PS)",75.1 % of control
13,"ACCCTTAGACATAACAC (sugars l3 d10 l4, PS)",59.7 % of control
14,"ACCCTTGATCATATTTGTGG (sugars l3 d14 l3, PS)",30.9 % of control
15,"ACCGAACTGCGAGGAGCAGC (sugars l3 d14 l3, PS)",0 % of control
16,"ACCTCATTAAGATCACC (sugars l2 d11 l4, PS)",69.7 % of control
17,"ACCTCCTAGAACACAAC (sugars l4 d10 l3, PS)",53.9 % of control
18,"ACCTCCTGGTTTAT (sugars l3 d8 l3, PS)",89.7 % of control
19,"ACCTCCTGGTTTATGA (sugars l3 d10 l3, PS)",32.2 % of control
20,"ACCTCCTGGTTTATGATGGA (sugars l3 d14 l3, PS)",0 % of control
21,"ACCTCGTCAGCTAGCG (sugars l3 d10 l3, PS)",65.2 % of control
22,"ACCTCTTAGTCATCTTCC (sugars l2 d13 l3, PS)",74.4 % of control
23,"ACCTCTTAGTCATCTTCCC (sugars l2 d15 l2, PS)",67.9 % of control
24,"ACCTGGCCACCTCCTG (sugars l3 d10 l3, PS)",28.6 % of control
25,"ACCTTACCACTTTCAG (sugars l3 d10 l3, PS)",104 % of control
26,"ACCTTGCTCAGGTCAACTGG (sugars l3 d14 l3, PS)",2.59 % of control
27,"ACCTTTTTCCATCTTACT (sugars l4 d12 l2, PS)",68.4 % of control
